Values joined by “and” are separate entries in the source; they are usually repeats but may differ in a detail not shown here. Identical values can stand only once. Toxic doses and inconclusive results are not listed. Rule as the data show it: active = T/C of 150% or more; inactive = T/C below 125%.
System: L1210 leukemia ip in BDF1 mice, survival T/C
Assay: NCI In Vivo Anticancer Drug Screen. Data for tumor model L1210 Leukemia (intraperitoneal) in B6D2F1 (BDF1) mice
Conditions: endpoint: mean survival time, higher = longer survival
In short: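 Ratio derived from survival: compound-dosed mice over vehicle-dosed mice, all bearing a transplantable tumor.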

[1] = dose: 100.0 mg/kg/injection, schedule: Q01DX001 (ip), vehicle: saline with Tween-80
[2] = dose: 200.0 mg/kg/injection, schedule: Q01DX001 (ip), vehicle: saline with Tween-80
[3] = dose: 400.0 mg/kg/injection, schedule: Q01DX001 (ip), vehicle: saline with Tween-80
[4] = dose: 100.0 mg/kg/injection, schedule: Q01DX001 (ip), vehicle: saline
[5] = dose: 100.0 mg/kg/injection, schedule: Q01DX009 (ip), vehicle: Klucel (hydroxypropylcellulose) (HPC)
[6] = dose: 100.0 mg/kg/injection, schedule: Q04DX003 (ip), vehicle: Klucel (hydroxypropylcellulose) (HPC)
[7] = dose: 200.0 mg/kg/injection, schedule: Q01DX009 (ip), vehicle: Klucel (hydroxypropylcellulose) (HPC)
[8] = dose: 200.0 mg/kg/injection, schedule: Q04DX003 (ip), vehicle: Klucel (hydroxypropylcellulose) (HPC)
[9] = dose: 400.0 mg/kg/injection, schedule: Q01DX009 (ip), vehicle: Klucel (hydroxypropylcellulose) (HPC)
[10] = dose: 400.0 mg/kg/injection, schedule: Q04DX003 (ip), vehicle: Klucel (hydroxypropylcellulose) (HPC)
[11] = dose: 50.0 mg/kg/injection, schedule: Q01DX009 (ip), vehicle: saline
[12] = dose: 100.0 mg/kg/injection, schedule: Q01DX009 (ip), vehicle: saline
[13] = dose: 100.0 mg/kg/injection, schedule: Q04DX003 (ip), vehicle: saline
[14] = dose: 200.0 mg/kg/injection, schedule: Q04DX003 (ip), vehicle: saline
[15] = dose: 200.0 mg/kg/injection, schedule: Q01DX001 (ip), vehicle: saline
[16] = dose: 25.0 mg/kg/injection, schedule: Q01DX009 (ip), vehicle: Klucel (hydroxypropylcellulose) (HPC)
[17] = dose: 50.0 mg/kg/injection, schedule: Q01DX009 (ip), vehicle: Klucel (hydroxypropylcellulose) (HPC)
[18] = dose: 100.0 mg/kg/injection, schedule: Q01DX001 (ip), vehicle: carboxymethylcellulose (CMC)

Measured: T/C

CCC(C)C1NC(=O)C(NC(=O)c2c3nc4c(C(=O)NC5C(=O)NC(C(C)CC)C(=O)N6CCCC6C(=O)N(C)CC(=O)N(C)C(C(C)C)C(=O)OC5C)cc([N+](=O)[O-])c(C)c4oc-3c(C)c(=O)c2N)C(C)OC(=O)C(C(C)C)N(C)C(=O)CN(C)C(=O)C2CCCN2C1=O (stereo unspecified)
inactive: dose: 75.0 micrograms/kg/injection, schedule: Q01DX009 (ip), vehicle: saline + alcohol 111 % of control | dose: 100.0 micrograms/kg/injection, schedule: Q01DX009 (ip), vehicle: saline + alcohol 112 % of control | dose: 200.0 micrograms/kg/injection, schedule: Q01DX009 (ip), vehicle: saline + alcohol 122 % of control | dose: 300.0 micrograms/kg/injection, schedule: Q04DX003 (ip), vehicle: saline + alcohol 107 % of control | dose: 400.0 micrograms/kg/injection, schedule: Q04DX003 (ip), vehicle: saline + alcohol 108 % of control | dose: 600.0 micrograms/kg/injection, schedule: Q04DX003 (ip), vehicle: saline + alcohol 119 % of control

CNC(=O)CCC(NS(=O)(=O)c1ccc(C)cc1)C(=O)OC (stereo unspecified)
inactive: [1] 100 % of control | [2] 94 % of control | [3] 97 % of control

Cc1cc(C)c(S(=O)(=O)O)c(Cc2ccc3ccccc3c2)c1
inactive: [4] 94 % of control

COC(=O)c1ccccc1NC(=O)Nc1ccccc1
inactive: [5] 108 % of control | [6] 101 % of control | [7] 101 % of control | [8] 101 % of control | [9] 100 % of control | [10] 98 % of control

CC1CN1P(=O)(N1CC1C)N1CC1C.CC1CN1P(=O)(N1CC1C)N1CC1C.CC1CN1P(=O)(N1CC1C)N1CC1C.CC1CN1P(=O)(N1CC1C)N1CC1C.[Cu+2].[O-][Cl+3]([O-])([O-])O (stereo unspecified)
inactive: dose: 25.0 mg/kg/injection, schedule: Q01DX009 (ip), vehicle: saline 111 % of control | dose: 25.0 mg/kg/injection, schedule: Q04DX002 (ip), vehicle: saline 108 % of control | [11] 119 % of control | dose: 50.0 mg/kg/injection, schedule: Q04DX002 (ip), vehicle: saline 102 % of control | [12] 92 % of control | dose: 100.0 mg/kg/injection, schedule: Q04DX002 (ip), vehicle: saline 108 % of control and 119 % of control

O=C(Oc1ccc([N+](=O)[O-])cc1)c1ccc(C[n+]2ccccc2)cc1
inactive: [11] 97 % of control | [12] 97 % of control and 104 % of control | [13] 97 % of control | dose: 200.0 mg/kg/injection, schedule: Q01DX009 (ip), vehicle: saline 100 % of control and 106 % of control | [14] 90 % of control

COc1ccc(C(=O)c2cc3cccc(OC)c3o2)cc1OC
inactive: dose: 75.0 mg/kg/injection, schedule: Q01DX009 (ip), vehicle: saline 87 % of control | [4] 102 % of control | dose: 150.0 mg/kg/injection, schedule: Q01DX009 (ip), vehicle: saline 92 % of control | [15] 94 % of control | dose: 300.0 mg/kg/injection, schedule: Q01DX009 (ip), vehicle: saline 93 % of control | dose: 400.0 mg/kg/injection, schedule: Q01DX001 (ip), vehicle: saline 93 % of control

[Cl][Pt+2][Cl].[NH-]c1ccc([N+](=O)[O-])cc1.[NH-]c1ccc([N+](=O)[O-])cc1
inactive: [13] 102 % of control | [14] 113 % of control

C(=N\C(/N=C/c1ccco1)c1ccco1)/c1ccco1
inactive: [5] 94 % of control | [6] 96 % of control | [7] 105 % of control | [8] 98 % of control | [9] 97 % of control | [10] 100 % of control

c1cc[c]([Sn]([c]2ccccc2)([c]2ccccc2)[c]2ccccc2)cc1
inactive: dose: 50.0 mg/kg/injection, schedule: Q01DX009 (ip), vehicle: saline with Tween-80 95 % of control | dose: 100.0 mg/kg/injection, schedule: Q01DX009 (ip), vehicle: saline with Tween-80 90 % of control | dose: 200.0 mg/kg/injection, schedule: Q01DX009 (ip), vehicle: saline with Tween-80 100 % of control

CCCCn1cnc2c(SC3CCCC3)ncnc21
inactive: dose: 100.0 mg/kg/injection, schedule: Q01DX001 (ip), vehicle: other 98 % of control | dose: 200.0 mg/kg/injection, schedule: Q01DX001 (ip), vehicle: other 96 % of control | dose: 400.0 mg/kg/injection, schedule: Q01DX001 (ip), vehicle: other 93 % of control

CSc1nsc2nnc(N)n12
inactive: dose: 75.0 mg/kg/injection, schedule: Q01DX001 (ip), vehicle: saline 89 % of control | dose: 150.0 mg/kg/injection, schedule: Q01DX001 (ip), vehicle: saline 102 % of control

C1=NOC2c3ccc4ccccc4c3CCC12 (stereo unspecified)
inactive: [5] 95 % of control | [7] 93 % of control | [9] 93 % of control

O=[N+]([O-])c1cc(Cl)cc2c1nc(NCCO)c1ccccc12
inactive: [16] 95 % of control | [17] 97 % of control | [6] 97 % of control

OC12CCCCC1C[n+]1ccccc1C2 (stereo unspecified)
inactive: [4] 101 % of control

O=C1NC(=O)C2C3OC(C(Cl)C3Cl)C12 (stereo unspecified)
inactive: dose: 12.5 mg/kg/injection, schedule: Q04DX002 (ip), vehicle: Klucel (hydroxypropylcellulose) (HPC) 98 % of control | [16] 97 % of control | dose: 25.0 mg/kg/injection, schedule: Q04DX002 (ip), vehicle: Klucel (hydroxypropylcellulose) (HPC) 102 % of control | [17] 107 % of control | dose: 50.0 mg/kg/injection, schedule: Q04DX002 (ip), vehicle: Klucel (hydroxypropylcellulose) (HPC) 98 % of control | dose: 75.0 mg/kg/injection, schedule: Q01DX009 (ip), vehicle: Klucel (hydroxypropylcellulose) (HPC) 96 % of control | dose: 75.0 mg/kg/injection, schedule: Q01DX009 (ip), vehicle: carboxymethylcellulose (CMC) 100 % of control

Cc1ccc(S(=O)(=O)Nc2cccc3cnccc23)cc1
inactive: dose: 50.0 mg/kg/injection, schedule: Q01DX001 (ip), vehicle: carboxymethylcellulose (CMC) 96 % of control | [18] 105 % of control | dose: 200.0 mg/kg/injection, schedule: Q01DX001 (ip), vehicle: carboxymethylcellulose (CMC) 102 % of control | dose: 400.0 mg/kg/injection, schedule: Q01DX001 (ip), vehicle: carboxymethylcellulose (CMC) 105 % of control

O=S(=O)(Nc1ccccc1)c1ccc2c(Cl)cc(S(=O)(=O)Nc3ccccc3)cc2c1
inactive: [1] 93 % of control | [2] 93 % of control | [3] 91 % of control

ClC(Cl)(Cl)c1ccc(C(SCc2ccccc2)SCc2ccccc2)cc1
inactive: dose: 100.0 mg/kg/injection, schedule: Q04DX003 (ip), vehicle: saline with Tween-80 86 % of control | dose: 200.0 mg/kg/injection, schedule: Q04DX003 (ip), vehicle: saline with Tween-80 89 % of control | dose: 400.0 mg/kg/injection, schedule: Q04DX003 (ip), vehicle: saline with Tween-80 86 % of control

Cc1nc(C#N)c(N)o1
inactive: dose: 5.0 mg/kg/injection, schedule: Q01DX001 (ip), vehicle: saline 103 % of control | dose: 10.0 mg/kg/injection, schedule: Q01DX001 (ip), vehicle: saline 103 % of control | dose: 20.0 mg/kg/injection, schedule: Q01DX001 (ip), vehicle: saline 98 % of control

O=C(O)c1c(F)c(F)c(-c2c(F)c(F)c(F)c(F)c2F)c(F)c1F
inactive: [1] 86 % of control | [2] 91 % of control

CCN(CC)CCNC(Cc1ccccc1)c1cccc(OC)c1 (stereo unspecified)
inactive: [18] 96 % of control

O=C1c2ccccc2C(=O)c2c(Nc3ccc(S(=O)(=O)N(CCO)CCO)cc3)ccc(O)c21
inactive: [4] 97 % of control | [15] 100 % of control

Source: PubChem BioAssay AID248 (DTP/NCI, 2004)
